In paper PMC9019904, “AD Informer Set: Chemical tools to facilitate Alzheimer's disease drug discovery” (Alzheimer's & Dementia : Translational Research & Clinical …, 2022):
Values after ≈ are worked out from the molar mass of the structure shown. Where two headings read alike, the source gives them in different places.

Experiments:
cellular system = conditions: published cellular activity at 10 μM; cited from earlier work
physchem = conditions: pH 7.4, aqueous buffer, kinetic from dmso stock
[1] = system: BV2 (mouse microglia) cell line; experiment: pHrodo-myelin phagocytosis/cell viability high content imaging assay: viability (cell count, nuclear area, nuclear intensity)
Outline: (§1)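 10 μM single dose, 48 h total; pHrodo-myelin present final 20 h. Read-out: automated imaging, total cell count/well, mean nuclear intensity/cell. n=2, normalized to untreated wells, % control.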

[2] = system: BV2 (mouse microglia) cell line; experiment: pHrodo-myelin phagocytosis/cell viability high content imaging assay: phagocytosis signal; assay type: cell-based
Outline: (§2)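 Phagocytosis and cell viability were measured together by high content imaging about 22 hours after pHrodo-myelin addition. Three measurements were extracted from the images. Intensity increase and decrease were taken as early and later apoptosis, respectively.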

[3] = system: HMC3 (human microglia) cell line; experiment: pHrodo-myelin phagocytosis/cell viability high content imaging assay: viability (cell count, nuclear area, nuclear intensity); conditions: for Human microglial cytotoxicity at 10 μM (<70% control): cell count <70% control
Outline: as §1

[4] = system: HMC3 (human microglia) cell line; experiment: pHrodo-myelin phagocytosis/cell viability high content imaging assay: phagocytosis signal; assay type: cell-based
Outline: as §2

[5] = Kinetic solubility in aqueous buffer pH 7.4 by total chemiluminescent nitrogen determination (Analiza); conditions: aqueous buffer, pH 7.4, aqueous buffer, kinetic from dmso stock
[6] = system: protein product expressed by the gene target; conditions: cited from earlier work
[7] = BV2 cells, 10 μM, cell count <70% control
[8] = BV2 cells, 10 uM compound, 48 hours treatment
[9] = HMC3 cells, 10 uM compound, 48 hours treatment

In the case of `Cc1cc(Nc2nc(N[C@@H](C)c3ncc(F)cn3)ncc2Cl)n[nH]1` [AZD-1480], the “Reported as cell active (<10 μM)” value (cellular system) is given as “Y (Published data supports that the compound is active in a cellular system when dosed at 10 μM (Y/N))”, the solubility kinetic (physchem) is given as 141 µM (≈ 49 µg/mL) and the “Mouse microglial cytotoxicity at 10 μM (<70% control)” value [1, 7] is given as “Y (The compound was found to be cytotoxic (cell count threshold: <70% control) when murine immortalized microglial cells were dosed at 10 μM (Y: yes))”. For the same compound, the “Stimulation of mouse microglial phagocytosis at 10 μM (>150% control)” value ([2]; BV2 cells, 10 μM) was “Y (The compound was found to stimulate phagocytosis (response threshold: >150% control) when murine immortalized microglial cells were dosed at 10 μM (Y: yes))”.

For `COc1nc(OCc2cccc(-c3ccccc3)c2C)ccc1CNCCNC(C)=O.Cl` [BMS-202], the “Reported as cell active (<10 μM)” value (cellular system) is listed as “Y (Published data supports that the compound is active in a cellular system when dosed at 10 μM (Y/N))”, the solubility kinetic (physchem) is listed as 97.9 µM and the “Mouse microglial cytotoxicity at 10 μM (<70% control)” value [1, 7] is listed as “Y (The compound was found to be cytotoxic (cell count threshold: <70% control) when murine immortalized microglial cells were dosed at 10 μM (Y: yes))”. The “Human microglial cytotoxicity at 10 μM (<70% control)” value ([3]; HMC3 cells, 10 μM) was “Y (The compound was found to be cytotoxic (cell count threshold: <70% control) when human immortalized microglial cells were dosed at 10 μM (Y: yes))”, the “Inhibition of mouse microglial phagocytosis at 10 μM (<70% control)” value ([2]; BV2 cells, 10 μM) was “Y (The compound was found to inhibit phagocytosis (response threshold: <70% control) when murine immortalized microglial cells were dosed at 10 μM (Y: yes))” and the “Inhibition of human microglial phagocytosis at 10 μM (<70% control)” value ([4]; HMC3 cells, 10 μM) was “Y (The compound was found to inhibit phagocytosis (response threshold: <70% control) when human immortalized microglial cells were dosed at 10 μM (Y: yes))”.

For `O=S(=O)(c1ccc2c(c1)C(=NO)c1cc(S(=O)(=O)N3CCCCC3)ccc1-2)N1CCCCC1` [CA3 (CIL56)], the solubility kinetic (physchem) was 1.2 µM (≈ 0.588 µg/mL), the “Mouse microglial cytotoxicity at 10 μM (<70% control)” value ([1]; BV2, 10 μM, cell count <70% control) was “Y (The compound was found to be cytotoxic (cell count threshold: <70% control) when murine immortalized microglial cells were dosed at 10 μM (Y: yes))” and the “Human microglial cytotoxicity at 10 μM (<70% control)” value ([3]; HMC3, 10 μM) was “Y (The compound was found to be cytotoxic (cell count threshold: <70% control) when human immortalized microglial cells were dosed at 10 μM (Y: yes))”. The “Inhibition of mouse microglial phagocytosis at 10 μM (<70% control)” value ([2]; BV2, 10 μM) was “Y (The compound was found to inhibit phagocytosis (response threshold: <70% control) when murine immortalized microglial cells were dosed at 10 μM (Y: yes))” and the “Inhibition of human microglial phagocytosis at 10 μM (<70% control)” value ([4]; HMC3, 10 μM) was “Y (The compound was found to inhibit phagocytosis (response threshold: <70% control) when human immortalized microglial cells were dosed at 10 μM (Y: yes))”.

In the case of `O=C(N/N=C/c1ccc(Cl)cc1)c1ccccc1` [Compound 1e], the solubility kinetic [5] is listed as 37.8 µM (≈ 9.78 µg/mL) and the “Reported on-target biochemical potency” value ([6]; gene target CTSH, ref PubMed 25181676) is listed as 440 nM.

For `Cc1cc(SCc2sc(-c3ccc(C(F)(F)F)c(F)c3)nc2C)ccc1OCC(=O)O` [GW0742], the “Reported as cell active (<10 μM)” value (cellular system) is listed as “Y (Published data supports that the compound is active in a cellular system when dosed at 10 μM (Y/N))” and the solubility kinetic (physchem) is listed as 145 µM (≈ 68.3 µg/mL).

For `CC[C@H](C)[C@H](N)C(=O)NCCN1CCOCC1.Cl.Cl` [LM11A-31 dihydrochloride], the “Reported as cell active (<10 μM)” value (cellular system) is given as “Y (Published data supports that the compound is active in a cellular system when dosed at 10 μM (Y/N))”, the solubility kinetic (physchem) is given as 178 µM and the “Stimulation of mouse microglial phagocytosis at 10 μM (>150% control)” value ([2]; BV2 cells, 10 μM) is given as “Y (The compound was found to stimulate phagocytosis (response threshold: >150% control) when murine immortalized microglial cells were dosed at 10 μM (Y: yes))”.

For `O=c1ncn2nc(Sc3ccc(F)cc3F)ccc2c1-c1c(Cl)cccc1Cl` [Neflamapimod (VX-745)], the solubility kinetic [5] is given as 48.1 µM (≈ 21 µg/mL), the “Reported on-target biochemical potency” value ([6]; target MAPK11, ref PubMed 24900264) is given as 220 nM and the “Reported on-target biochemical potency” value ([6]; target MAPK14, ref PubMed 24900264) is given as 10 nM. For the same compound, the “Stimulation of mouse microglial phagocytosis at 10 μM (>150% control)” value ([2]; 10 μM, BV2) was “Y (The compound was found to stimulate phagocytosis (response threshold: >150% control) when murine immortalized microglial cells were dosed at 10 μM (Y: yes))”.

In the case of `O=C(Nc1ccc([N+](=O)[O-])cc1Cl)c1cc(Cl)ccc1O` [Niclosamide], the “Reported as cell active (<10 μM)” value (cellular system) is given as “Y (Published data supports that the compound is active in a cellular system when dosed at 10 μM (Y/N))”, the solubility kinetic (physchem) is given as 17.5 µM (≈ 5.72 µg/mL) and the “Inhibition of human microglial phagocytosis at 10 μM (<70% control)” value ([4]; HMC3 cells, 10 μM) is given as “Y (The compound was found to inhibit phagocytosis (response threshold: <70% control) when human immortalized microglial cells were dosed at 10 μM (Y: yes))”.

For `Cl.NC(=O)c1cnc(N[C@@H]2CCCC[C@@H]2N)nc1Nc1cccc(-n2nccn2)c1` [P505-15 (PRT06207 HCl)], the “Reported as cell active (<10 μM)” value (cellular system) is listed as “Y (Published data supports that the compound is active in a cellular system when dosed at 10 μM (Y/N))”, the solubility kinetic (physchem) is listed as 118 µM and the “Inhibition of mouse microglial phagocytosis at 10 μM (<70% control)” value ([2]; BV2 cells, 10 μM) is listed as “Y (The compound was found to inhibit phagocytosis (response threshold: <70% control) when murine immortalized microglial cells were dosed at 10 μM (Y: yes))”. The “Inhibition of human microglial phagocytosis at 10 μM (<70% control)” value ([4]; HMC3 cells, 10 μM) was “Y (The compound was found to inhibit phagocytosis (response threshold: <70% control) when human immortalized microglial cells were dosed at 10 μM (Y: yes))”.

For `CCN(CC)Cc1ccc(C(=O)N(CCc2ccccc2OC)[C@@H]2CCNC2)cc1.Cl.Cl` [PF429242], the “Reported as cell active (<10 μM)” value (cellular system) is listed as “Y (Published data supports that the compound is active in a cellular system when dosed at 10 μM (Y/N))”, the solubility kinetic (physchem) is listed as 131 µM and the “Stimulation of mouse microglial phagocytosis at 10 μM (>150% control)” value ([2]; BV2 cells, 10 μM) is listed as “Y (The compound was found to stimulate phagocytosis (response threshold: >150% control) when murine immortalized microglial cells were dosed at 10 μM (Y: yes))”. The “Inhibition of human microglial phagocytosis at 10 μM (<70% control)” value ([4]; HMC3 cells, 10 μM) was “Y (The compound was found to inhibit phagocytosis (response threshold: <70% control) when human immortalized microglial cells were dosed at 10 μM (Y: yes))”.

For `Cc1ccc(S(=O)(=O)O)cc1.Nc1n[nH]cc1-c1cc(Cl)ccc1Oc1cc(F)c(S(=O)(=O)Nc2cscn2)cc1Cl` [PF-05089771], the “Reported as cell active (<10 μM)” value (cellular system) is listed as “Y (Published data supports that the compound is active in a cellular system when dosed at 10 μM (Y/N))” and the solubility kinetic (physchem) is listed as 76.4 µM.

In the case of `O=c1[nH]c2ccccc2n1C1CCN(CCCC(c2ccc(F)cc2)c2ccc(F)cc2)CC1` [Pimozide], the “Reported as cell active (<10 μM)” value (cellular system) is listed as “Y (Published data supports that the compound is active in a cellular system when dosed at 10 μM (Y/N))” and the solubility kinetic (physchem) is listed as 2.9 µM (≈ 1.34 µg/mL).

In the case of `NC(=O)[C@@H]1CC[C@H](c2ccc(OCc3ccccc3F)cc2)N1` [Raxatrigine], the “Reported as cell active (<10 μM)” value (cellular system) is listed as “Y (Published data supports that the compound is active in a cellular system when dosed at 10 μM (Y/N))”, the solubility kinetic (physchem) is listed as 178 µM (≈ 55.9 µg/mL) and the “Stimulation of mouse microglial phagocytosis at 10 μM (>150% control)” value ([2]; BV2 cells, 10 μM) is listed as “Y (The compound was found to stimulate phagocytosis (response threshold: >150% control) when murine immortalized microglial cells were dosed at 10 μM (Y: yes))”.

For `N#CC(CCCN1CCN(/N=C/c2cccnc2)CC1)(c1ccccc1)c1ccccc1` [SC-26196], the solubility kinetic [5] is given as 1.9 µM (≈ 0.805 µg/mL) and the “Reported on-target biochemical potency” value ([6]; gene target FADS2, ref PubMed 18719641, 23112819, 10419129) is given as 200 nM.

In the case of `CCOC(=O)N1c2ccc(C(F)(F)F)cc2[C@@H](N(Cc2cc(C(F)(F)F)cc(C(F)(F)F)c2)C(=O)OC)C[C@H]1CC` [Torcetrapib], the solubility kinetic [5] is given as less than 1.1 µM and the “Reported on-target biochemical potency” value ([6]; gene target CETP, ref Probe Miner, PubMed 17984165, 19164467) is given as 7.72 nM.

For `Cl.O=C(NCCCNc1nc(Nc2cccc(CN3CCOCC3)c2)ncc1C1CC1)C1CCC1` [UNC10302867A, reference compound], the solubility kinetic (physchem) was 119 µM, the “Mouse microglial cytotoxicity at 10 μM (<70% control)” value ([1]; 10 μM, BV2) was “Y (The compound was found to be cytotoxic (cell count threshold: <70% control) when murine immortalized microglial cells were dosed at 10 μM (Y: yes))” and the “1. Cell count (% control)” value [1, 8] was 17.6 % control. For the same compound, the “2. Nuclear Area (% Control)” value [1, 8] was 154.0 % Control, the “3. Nuclear DNA Intensity (% control)” value [1, 8] was 122.3 % control and the “1. Cell count (% control)” value [3, 9] was 81.1 % control. The “2. Nuclear Area (% Control)” value [3, 9] was 129.3 % Control, the “3. Nuclear DNA Intensity (% control)” value [3, 9] was 124.9 % control and the “Stimulation of mouse microglial phagocytosis at 10 μM (>150% control)” value ([2]; 10 μM, BV2) was “Y (The compound was found to stimulate phagocytosis (response threshold: >150% control) when murine immortalized microglial cells were dosed at 10 μM (Y: yes))”. For the same compound, the “phagocytosis in mouse microglial cells (< 70% control inhibition, > 150% control stimulation)” value ([2]; BV2, 10 μM, pHrodo-myelin) was “stimulator of phagocytosis”, the “4. Phagocytosis (% control)” value ([2]; BV2 cells, 10 uM compound, 48 hours treatment, pHrodo-myelin final 20 hours) was 282.0 % control and the “Stimulation of human microglial phagocytosis at 10 μM (>150% control)” value ([4]; 10 μM, HMC3) was “Y (The compound was found to stimulate phagocytosis (response threshold: >150% control) when human immortalized microglial cells were dosed at 10 μM (Y: yes))”. For the same compound, the “phagocytosis in human microglial cells (< 70% control inhibition, > 150% control stimulation)” value ([4]; HMC3, 10 μM, pHrodo-myelin) was “stimulator of phagocytosis” and the “4. Phagocytosis (% control)” value ([4]; HMC3 cells, 10 uM compound, 48 hours treatment, pHrodo-myelin final 20 hours) was 290.0 % control.

For `CN1C(=N)N[C@](C)(c2cc(NC(=O)c3ccc(F)cn3)ccc2F)CS1(=O)=O` [Verubecestat (MK-8931)], the solubility kinetic [5] is listed as 154 µM (≈ 63.3 µg/mL), the “Reported on-target biochemical potency (nM): BACE1” value ([6]; gene target BACE1, ref PubMed 27418961, 27023706) is listed as 1.8 nM and the “Reported on-target biochemical potency (nM): BACE2” value ([6]; gene target BACE2, ref PubMed 27418961, 27023706) is listed as 0.37 nM.
